Results taken from patent US7183112B2, “Uses for anti-malarial therapeutic agents” (APT Pharmaceuticals, LLC, priority 1999, dated 2007).
Several values for one entry are separate records, joined by “and”; a condition that tells them apart may be missing. Identical values can stand only once. Marks after values point to notes of the source that are not given here.

Tested on: Ascaris-sensitized sheep
Test: Antigen-induced specific lung resistance (baseline, peak EAR, peak LAR), Example 3
Format: in vivo
Conditions: for EAR (peak, largest specific lung resistance 0–4 h) / LAR (peak, largest specific lung resistance 5–8 h): mean ± SE, n = 3 sheep
Description: All procedures were approved by the Mount Sinai Medical Center Animal Research Committee, which is responsible for assuring the humane care and use of experimental animals. […] During the chronic treatment trail, venous blood samples were obtained from the external jugular vein for the determination of plasma compound concentrations. Samples were obtained as baseline (pre-dosing), and, then, before dosing on days 8, 15, 22, 29 and after dosing had stopped on day 43. Measurement of Airway Mechanics: The unsedated sheep were restrained in a cart in the prone position with their heads immobilized. After topical anesthesia of the nasal passages with 2%-lidocaine solution, a balloon catheter was advanced through one nostril into the lower esophagus. The animals were […] with a cuffed endotracheal tube through the other nostril using a flexible fiberoptic bronchoscope as a guide. (The cuff of the endotracheal tube was inflated only for the measurement of airway mechanics and during aerosol challenges to prevent undue discomfort. This procedure has no-effect on airway mechanics). Pleural pressure was estimated with the esophageal balloon catheter (filled with one ml of air) which was positioned 5–10 cm from the gastroesophageal junction. In this position, the end expiratory pleural pressure ranged between -2 and -5 cm H2O. Once the balloon was placed, it was secured so that it remained in position for the duration of the experiment. Lateral pressure in the trachea was measured with a sidehole catheter (inner dimension, 2.5 mm) advanced through and positioned distal to the tip of the endotracheal tube. Transpulmonary pressure, the difference between tracheal and pleural pressure, was measured with a differential pressure transducer catheter system. For the measurement of pulmonary resistance (RL), the proximal end of the endotracheal tube was connected to a pneumotachograph. The signals of flow and transpulmonary pressure were recorded on a n oscilloscope recorder which was linked to a computer for on-line calculation of RL from transpulmonary pressure, respiratory volume (obtained by digital integration) and flow. Analysis of 5–10 breaths were used for the determination of RL. Immediately after the measurements of RL, thoracic gas volume (Vtg) was measured in a constant volume body plethysmograph to obtain specific lung resistance (SRL=RL·Vtg) in cm H2O·sec^−1. Aerosol Delivery Systems: Aerosols of Ascaris suum extract (diluted 20:1 with phosphate buffered saline; 82,000 PNU/ml) were generated using a disposable medical nebulizer (Raindrop^R, Puritan Bennett), which produces an aerosol with a mass median aerodynamic diameter of 3.2 μm (geometric standard deviation, 1.9) as determined by a 7 stage Andersen cascade impactor. The output from the nebulizer was directed into a plastic T-piece, one end of which was connected to the inspiratory port of a Harvard respirator. To better control aerosol delivery, a dosimeter consisting of a solenoid valve and a source of compressed air (20 psi) was activated at the beginning of the inspiratory cycle of the Harvard respirator system for 1 second. The aerosol was delivered at a tidal volume of 500 ml and a rate of 20 breaths per minute for 20 minutes. Each sheep was challenged with an equivalent dose of antigen (400 breaths) in the control and drug trials. Carbachol aerosols were also generated with this same nebulizer system. The same basic protocol was used for all studies in Example 3. This basic protocol consisted of first obtaining baseline dose response curves to aerosol carbachol 1–3 days prior to antigen challenge. Then, on the day of antigen challenge, values of specific lung resistance (SRL) were measured at baseline and, then, 30 min after drug or vehicle (0.9% saline) treatment. The animals were, then, challenged with Ascaris suum antigen and SRL was remeasured immediately after challenge, hourly from 1–6 h after challenge and on the half-hour from 6 ½–8 h after challenge. […]

[1] = No Treatment 14d after stopping aerosol 2 mg/kg/d x 28 d
[2] = No Treatment 28d after stopping aerosol 2 mg/kg/d x 28 d
[3] = aerosol 0.2 mg/kg once a day x 4 d
[4] = aerosol 0.6 mg/kg once a day x 4 d
[5] = aerosol 1 mg/kg twice a day for 4 days
[6] = aerosol 1 mg/kg twice a day x 4 d
[7] = aerosol 2 mg/kg once a day for 4 days
[8] = aerosol 2 mg/kg once a day x 4 d
[9] = aerosol 2 mg/kg once a day x 14 d
[10] = aerosol 2 mg/kg once a day x 28 d
[11] = chronic treatment, aerosol 2 mg/kg once a day for up to 4 weeks
[12] = dose response, aerosol 0.2, 0.6 and 2 mg/kg once a day for 4 days
[13] = p.o. 1 mg/kg twice a day for 4 days

## CCN(CCO)CCCC(C)Nc1ccnc2cc(Cl)ccc12 (stereo not drawn) [HCQ, hydroxychloroquine]
2 weeks after stopping 4 weeks aerosol 2 mg/kg once a day
  effect on LAR and AHR after stopping treatment: carryover effect
2 weeks after stopping aerosol 1 mg/kg twice a day for 4 days
  response to allergen after stopping treatment: responded normally
2 weeks after stopping aerosol 2 mg/kg once a day for 4 days
  response to allergen after stopping treatment: responded normally
4 weeks after stopping 4 weeks aerosol 2 mg/kg once a day
  animals' responses after stopping treatment: returned to normal
[1]
  EAR (peak, largest specific lung resistance 0–4 h): 4.17 ± 1.70 cmH2O.sec^−1
  LAR (peak, largest specific lung resistance 5–8 h): 1.69 ± 0.21 cmH2O.sec^−1
[2]
  EAR (peak, largest specific lung resistance 0–4 h): 4.35 ± 0.74 cmH2O.sec^−1
  LAR (peak, largest specific lung resistance 5–8 h): 2.69 ± 0.26^h cmH2O.sec^−1
[3]
  EAR (peak, largest specific lung resistance 0–4 h): 3.95 ± 0.47 cmH2O.sec^−1
  LAR (peak, largest specific lung resistance 5–8 h): 2.22 ± 0.17^h cmH2O.sec^−1
Aerosol 0.6 mg/kg once a day for 4 days
  overall protective effect: significant protective effects
[4]
  EAR (peak, largest specific lung resistance 0–4 h): 3.19 ± 0.51 cmH2O.sec^−1
  LAR (peak, largest specific lung resistance 5–8 h): 1.30 ± 0.18^f cmH2O.sec^−1
[5]
  effect on early airway response (EAR): no effect
  effect on late airway response (LAR): blocked
[6]
  EAR (peak, largest specific lung resistance 0–4 h): 5.57 ± 1.82 cmH2O.sec^−1
  LAR (peak, largest specific lung resistance 5–8 h): 1.35 ± 0.15^d,e cmH2O.sec^−1
[7]
  effect on EAR: no effect
  effect on LAR: blocked
[8]
  EAR (peak, largest specific lung resistance 0–4 h): 3.5 ± 0.73 cmH2O.sec^−1 and 3.53 ± 0.73 cmH2O.sec^−1
  LAR (peak, largest specific lung resistance 5–8 h): 1.34 ± 0.32^d,e cmH2O.sec^−1 and 1.34 ± 0.03^d cmH2O.sec^−1
[9]
  EAR (peak, largest specific lung resistance 0–4 h): 4.21 ± 1.68 cmH2O.sec^−1
  LAR (peak, largest specific lung resistance 5–8 h): 0.78 ± 0.39^f cmH2O.sec^−1
[10]
  EAR (peak, largest specific lung resistance 0–4 h): 4.21 ± 1.16 cmH2O.sec^−1
  LAR (peak, largest specific lung resistance 5–8 h): 1.22 ± 0.08^d cmH2O.sec^−1
[11]
  effect on EAR: no effect
  effect on LAR: block
[12]
  effect on EAR: no effect
  effect on LAR: blocked
[13]
  effect on antigen-induced EAR: did not protect
  effect on antigen-induced LAR: did not protect
p.o. 1 mg/kg twice a day x 4 d
  EAR (peak, largest specific lung resistance 0–4 h): 4.64 ± 0.55 cmH2O.sec^−1
  LAR (peak, largest specific lung resistance 5–8 h): 2.27 ± 0.10 cmH2O.sec^−1
